Measured values: patent EP4578857A1, “CRYPTOLEPINE SALT DERIVATIVE, AND PREPARATION METHOD THEREFOR AND USE THEREOF” (Nankai University, priority 2023, dated 2025)
Read-outs that look alike come from different tables or passages of the source.

Tests used:
Format in all cases: in vivo
[1] = test system: tobacco Mosaic virus (TMV); assay: Anti-TMV activity: live protection function; details: for antiTMV activity / TMV activity: 500µg/mL, Table 4 (all three modes); for antiTMV activity: compared with commercial Ningnanmycin; for TMV activity: compared with ribavirin; for inhibition at 500 µg/mL: Tobacco mosaic virus, read-out: Relative inhibition rate (%) Live protection function; for Relative inhibition rate (%) Live protection function: Treatment dose 500 mg/L, tobacco Xanthi nc sprayed 24h before inoculation, virus 10µg/mL, disease spots counted after 3 days
Description: (§1) Determination of anti-tobacco Mosaic virus (TMV) activity by the following procedure:
(§2) The virus crude extract was centrifuged with polyethylene glycol at twice and refrigerated at 4°C for use. The absorbance of 260nm wavelength was determined by ultraviolet spectrophotometer, and the virus concentration was calculated according to the formula. Virus concentration(mg/ml) = (A260 × dilution ratio)(/E)^0.10 1cm^260nm . [formula]
(§3) After weighing, cryptolepine salt derivative, ningnanmycin and the original drug of ribavirin were dissolved in DMF to obtain 1×10^5µg/mL mother solution, and then diluted to the required concentration with 1‰ Tween 80 aqueous solution.
Select the 3-5 leaf stage of tobacco Xanthi nc with uniform growth, spray the whole plant, repeat each treatment 3 times, and set 1‰ Tween80 aqueous solution as control. 24h later, the leaf surface was coated with emery (500 mesh), the disease venom was dipped with a brush, and the whole leaf surface was gently rubbed twice along the direction of the branch pulse by using the brush, the leaf was supported by palm of hand, the virus concentration was 10µg/mL, and the leaf was washed by water after inoculation. After 3 days, the number of disease spots was recorded and the prevnetion and control effect was calculated.

[2] = test system: tobacco Mosaic virus (TMV); assay: Anti-TMV activity: live treatment effect; details: for inhibition at 500 µg/mL: Tobacco mosaic virus, 72 h, read-out: Relative inhibition rate (%) Live treatment effect; for Relative inhibition rate (%) Live treatment effect: Treatment dose 500 mg/L, tobacco Xanthi nc inoculated (virus 10µg/mL), then sprayed, disease spots counted after 3 days
Description: as §1, §2, §3
Select the 3-5 leaf stage of tobacco Xanthi nc with uniform growth, use a brush to vaccinate the virus in the whole leaf, the virus concentration is 10µg/mL, and the leaf was washed with running water after inoculation. After the leaves were dried, the whole plant was sprayed with test sample, repeated 3 times every treatment, and 1‰ Tween 80 aqueous solution was set as control. After 3 days, the number of disease spots was recorded and the prevnetion and control effect was calculated.

[3] = test system: tobacco Mosaic virus (TMV); assay: Anti-TMV activity: living passivation activity test; details: for inhibition at 500 µg/mL: Tobacco mosaic virus, read-out: Relative inhibition rate (%) Living passivation activity test; for Relative inhibition rate (%) Living passivation activity test: Treatment dose 500 mg/L, sample mixed with virus juice for 30min, then inoculated on tobacco Xanthi nc, virus 20µg/mL, 3 days
Description: as §1, §2, §3
Select the 3-5 leaf stage of tobacco Xanthi nc with uniform growth, mix the test sample agent with the same volume of virus juice to passivate for 30min, friction inoculation, virus concentration 20µg/mL, the leaf was washed with running water after inoculation, repeat 3 times, set 1‰ Tween 80 aqueous solution as control. 3 days later, the number of disease spots was calculated. [formula]
Anti-tobacco Mosaic virus passivation activity test of all compounds was at a treatment dose of 500µg/mL. The positive control was the commercial anti-plant virus agent viriazole.

[4] = test system: rice sheath blight strains; assay: Bactericidal activity test: resistance to rice sheath blight (live pot test); details: for pest or weed control at 400 µg/mL: Oryza sativa, 144 h
Description: Bactericidal activity test, the determination procedure is as follows: Test of resistance to rice sheath blight: Select uniformly growing rice seedlings and spray them on the leaves at the set concentration, set a water sprayring group as blank control, every treatment was repeated twice. After 24h, the rice seedlings were inoculated with rice sheath blight strains and placed at room temperature (25±4°C) for normal management after inoculation. The prevention and control effect was investigated by visual inspection 6 days after inoculation.

[5] = read-out: Resistance to rice sheath blight (%)/400mg/L
[6] = read-out: bactericidal activity against rice sheath blight
[7] = 400mg/L leaf spray on rice seedlings, inoculated after 24h, visual inspection 6 days after inoculation, read-out: Resistance to rice sheath blight (%)/400mg/L
[8] = 400mg/L leaf spray on rice seedlings, inoculated after 24h, visual inspection 6 days after inoculation

| Compound | antiTMV activity [1] | TMV activity [1] | inhibition at 500 µg/mL [1] [%] | inhibition at 500 µg/mL [2] [%] | inhibition at 500 µg/mL [3] [%] | pest or weed control at 400 µg/mL [4, 5] [%] | pest or weed control at 400 µg/mL [4, 6] [%] | pest or weed control at 400 µg/mL [4, 7] [%] | Relative inhibition rate (%) Live protection function [1] [%] | Relative inhibition rate (%) Live treatment effect [2] [%] | Relative inhibition rate (%) Living passivation activity test [3] [%] | Resistance to rice sheath blight (%)/400mg/L [4, 8] [%] | pest or weed control at 400 µg/mL ([4]; live pot test, summary of Table 5 (400mg/L), read-out: bactericidal activity against rice sheath blight) [%] |
| --- | --- | --- | --- | --- | --- | --- | --- | --- | --- | --- | --- | --- | --- |
| Cc1ccc(S(=O)(=O)n2c3ccccc3c3c2cc2cc(Br)ccc2[n+]3C)cc1 [Example 13] | comparable to that of commercial Ningnanmycin | better TMV activity than the ribavirin | 50.8 ± 1 | 52 ± 2.4 | 46.1 ± 3.9 | 35 ± 5 | – | – | – | – | – | – | – |
| Cc1ccc(S(=O)(=O)n2c3ccccc3c3c2cc2cc(C(F)(F)F)ccc2[n+]3C)cc1 [Example 14] | – | – | 15.3 ± 1.2 | 18.9 ± 1.2 | 20.1 ± 1.5 | 60 | > 50 | – | – | – | – | – | – |
| COC(=O)c1ccc2c(c1)cc1c(c3ccccc3n1S(=O)(=O)c1ccc(C)cc1)[n+]2C [Example 15] | – | – | 15.6 ± 0.4 | 22.1 ± 0.2 | 20 ± 1 | 40 | – | – | – | – | – | – | – |
| Cc1ccc(S(=O)(=O)n2c3ccccc3c3c2cc2ccc(C)cc2[n+]3C)cc1 [Example 16] | – | – | 28.1 ± 4.5 | 30.1 ± 1.1 | 18.9 ± 0.8 | 95 ± 5 | > 95 | – | – | – | – | – | – |
| Cc1ccc(S(=O)(=O)n2c3ccccc3c3c2cc2ccc(Cl)cc2[n+]3C)cc1 [Example 17] | – | – | 30.2 ± 1.7 | 23.5 ± 2.1 | 33.1 ± 1.1 | 40 | – | – | – | – | – | – | – |
| Cc1ccc(S(=O)(=O)n2c3ccccc3c3c2cc2ccccc2[n+]3CC2CC2)cc1 [Example 18] | – | better TMV activity than the ribavirin | 45.6 ± 0.9 | 38.7 ± 2.4 | 40.8 ± 2.9 | 45 ± 5 | > 50 | – | – | – | – | – | – |
| Cc1ccc(S(=O)(=O)n2c3ccccc3c3c2cc2ccccc2[n+]3CC2CCCCC2)cc1 [Example 19] | – | better TMV activity than the ribavirin | 47 ± 2.8 | 42.4 ± 4.9 | 44.2 ± 3.4 | 20 | – | – | – | – | – | – | – |
| Cc1ccc(S(=O)(=O)n2c3ccccc3c3c2cc2ccccc2[n+]3CC(C)(C)C)cc1 [Example 20] | comparable to that of commercial Ningnanmycin | better TMV activity than the ribavirin | 51.3 ± 3.5 | 48.5 ± 3 | 53 ± 2.1 | 55 ± 5 | > 50 | – | – | – | – | – | – |
| Cc1ccc(S(=O)(=O)n2c3ccccc3c3c2cc2ccccc2[n+]3Cc2ccccc2)cc1 [Example 21] | – | better TMV activity than the ribavirin | 41.4 ± 3.9 | 32.3 ± 1.8 | 35.9 ± 4 | 40 | – | – | – | – | – | – | – |
| C[n+]1c2ccccc2cc2c1c1ccccc1n2S(=O)(=O)c1ccccc1 [Example 22] | – | – | 14 ± 1.1 | 18.2 ± 1.1 | 15.5 ± 1.1 | 45 ± 5 | > 50 | – | – | – | – | – | – |
| CCCNc1c2ccccc2[n+](C)c2c1[nH]c1ccccc12 [Example 23] | – | – | 33 ± 2.9 | 30.1 ± 1 | 35.2 ± 1.1 | – | – | 30 | – | – | – | – | – |
| CCCCCNc1c2ccccc2[n+](C)c2c1[nH]c1ccccc12 [Example 24] | – | – | – | – | – | – | – | – | 36.9±3.7 | 30.3±0.8 | 35.2±1.0 | 30±0 | – |
| CCCCCCCCCCCCNc1c2ccccc2[n+](C)c2c1[nH]c1ccccc12 [Example 25] | – | – | – | – | – | – | – | – | 27.3±3.0 | 22.1±1.1 | 35.1±0.1 | 20±0 | – |
| CC(C)CCNc1c2ccccc2[n+](C)c2c1[nH]c1ccccc12 [Example 26] | – | better TMV activity than the ribavirin | 43.1 ± 3.4 | 45.4 ± 1.9 | 37 ± 3 | – | – | 35 ± 5 | – | – | – | – | – |
| CCCCC(CC)CNc1c2ccccc2[n+](C)c2c1[nH]c1ccccc12 (centres unmarked) [Example 27] | comparable to that of commercial Ningnanmycin | better TMV activity than the ribavirin | 52.1 ± 2.8 | 46.3 ± 4.2 | 47.9 ± 1.5 | – | – | 30 | – | – | – | – | – |
| C[n+]1c2ccccc2c(NCC2CC2)c2[nH]c3ccccc3c21 [Example 28] | – | – | 20.5 ± 1.7 | 19.6 ± 0.2 | 25.3 ± 1.2 | – | – | 60 | – | – | – | – | > 50 |
| C[n+]1c2ccccc2c(NC2CCCC2)c2[nH]c3ccccc3c21 [Example 29] | – | – | 38.6 ± 4.6 | 36.5 ± 2.3 | 30.5 ± 0.9 | – | – | 30 | – | – | – | – | – |
| C[n+]1c2ccccc2c(NCC2CCCCC2)c2[nH]c3ccccc3c21 [Example 30] | – | – | 20.9 ± 2.9 | 21.5 ± 1.1 | 30 ± 0.8 | – | – | 35 ± 5 | – | – | – | – | – |
| C[n+]1c2ccccc2c(NCCCC2CCCCC2)c2[nH]c3ccccc3c21 [Example 31] | – | – | 29.5 ± 1.3 | 28.9 ± 1.1 | 30.5 ± 0.2 | – | – | 25 ± 5 | – | – | – | – | – |
| C[n+]1c2ccccc2c(NCCN)c2[nH]c3ccccc3c21 [Example 32] | – | – | 25.1 ± 4.3 | 30.1 ± 0.4 | 28.7 ± 2.1 | – | – | 30 | – | – | – | – | – |
| C[n+]1c2ccccc2c(NCCCN)c2[nH]c3ccccc3c21.[I-] [Example 33] | comparable to that of commercial Ningnanmycin | better TMV activity than the ribavirin | – | – | – | – | – | – | 57.9±4.6 | 51.7±3.6 | 49.8±3.1 | 40±0 | – |
| C[n+]1c2ccccc2c(NCCCCN)c2[nH]c3ccccc3c21 [Example 34] | comparable to that of commercial Ningnanmycin | better TMV activity than the ribavirin | 50.3 ± 2.1 | 43.9 ± 2 | 41.2 ± 4.6 | – | – | 20 | – | – | – | – | – |
| CC(N)CNc1c2ccccc2[n+](C)c2c1[nH]c1ccccc12 (centres unmarked) [Example 35] | – | better TMV activity than the ribavirin | 41 ± 2.4 | 48 ± 1.5 | 44.3 ± 2.9 | – | – | 25 ± 5 | – | – | – | – | – |
| C[n+]1c2ccccc2c(NCC(C)(C)N)c2[nH]c3ccccc3c21 [Example 36] | – | – | 29.8 ± 2.1 | 30.1 ± 0.2 | 28.7 ± 1.1 | – | – | 35 ± 5 | – | – | – | – | – |
| CCNCCNc1c2ccccc2[n+](C)c2c1[nH]c1ccccc12 [Example 37] | – | – | 31.6 ± 3.2 | 20.7 ± 1.2 | 33.6 ± 0.8 | – | – | 40 | – | – | – | – | – |
| CNCCCNc1c2ccccc2[n+](C)c2c1[nH]c1ccccc12 [Example 38] | – | – | 35 ± 4.1 | 40.2 ± 1 | 30.7 ± 1.2 | – | – | 30 | – | – | – | – | – |
| CN(C)CC(C)(C)CNc1c2ccccc2[n+](C)c2c1[nH]c1ccccc12 [Example 39] | – | – | 25.4 ± 3.8 | 30.1 ± 0.2 | 28.9 ± 2.1 | – | – | 25 ± 5 | – | – | – | – | – |
| C[n+]1c2ccccc2c(NC2CCNC2)c2[nH]c3ccccc3c21 (centres unmarked) [Example 40] | – | better TMV activity than the ribavirin | 45.8 ± 3.8 | 39.5 ± 3.1 | 38.6 ± 2.5 | – | – | 20 | – | – | – | – | – |
